Source: patent US20250008950A1, “BIOCIDE COMPOSITIONS” (BASF SE, priority 2021, published 2025)

Experiment: Solubility of biocide in solvent system (A1+A2)
Assay type: physicochemical
Description: General method of preparing emulsifiable composition (C): Component (A1) and component (A2) were mixed and heated to a temperature in the range of 20° C. to 100° C. to obtain a solution. Respective amount of the biocide was charged to the above solution at a temperature in the range of 20° C. to 100° C. to obtain the solution containing biocide. Emulsifier and other optional ingredients were charged o to the above biocide containing solution to obtain the emulsifiable composition (C).

## CO/C=C(/C(=O)OC)c1ccccc1Oc1cc(Oc2ccccc2C#N)ncn1 [Azoxystrobin]
Solvent system Acetophenone (A1) / 2-Methoxy-4-Methylphenol (A2), molar ratio A1:A2 1:1
  Solubility wt. % in total (C): 27 wt. %
Solvent system Acetophenone (A1) / 2-sec-Butylphenol (A2), molar ratio A1:A2 1:1
  Solubility wt. % in total (C): 32 wt. %
Solvent system Acetophenone (A1) / Phenyl acetic acid (A2), molar ratio A1:A2 2:1
  Solubility wt. % in total (C): 25 wt. %
Solvent system Acetophenone (A1) / Thymol (A2), molar ratio A1:A2 1:1
  Solubility wt. % in total (C): 28 wt. %
